Source: patent publication US4748161A, “Triterpenyl esters of organic acids and hypolipidemic agents composed of them” (Amano Pharmaceutical Co., Ltd., priority 1984, dated 1988)
Like-named read-outs stand apart in the source and are kept apart here.

Legend:
[1] = tested on: serum lipids and serum lipid hydroperoxide; assay: Pharmacological test method B for anti-hyperlipidemic activity (serum lipids, 4 weeks feeding); assay type: in vivo, male Wistar strain rats; set-up: AI Diff.: unit not given here; settings: for AI [(TC - HDL-C)/(HDL-C)] / HDL-C in serum / LPO in serum / PL in serum / TC in serum / TG in serum: 1% in hyperlipidemic diet, 4 weeks; for HDL-C rise compared with normal diet group: versus normal diet group; for change in vivo at 1 % in diet: Rattus norvegicus, po, 672 h; for TG % of diff. (Table 20) / TG Diff. (Table 20): Table 20, versus control group
Experimental: Pharmacological test method B for anti-hyperlipidemic acitivity (the term "method B" was used in the present specification)
(§1) Male Wistar strain rats (100±1 g, each 8 rats were formed into a group except that the control group fed with a hyperlipidemic diet was formed of 16 rats) were used as test animals. A powdery diet (CE-2, supplied by Clea Japan, Inc.) was used as ordinary diet. The hyperlipidemic diet was prepared by fortifying the ordinary diet with cholesterol (1%) and cholic acid (0.5%). Each test compound (1%) for administration was admixed with the hyperlipidemic diet. Each two rats were kept in a cage and given the prescribed diet and water ad libitum. Thus the rats were fed for 4 weeks at a constant temperature of 23±1° C. and a constant R.H. of 55±5%. Finally, the rats were fasted from food except water for 16 hours (from 4 p.m. of the 28th test day to 8 a.m. of the 29th test day), and under anesthesia with pentbarbital sodium (tradename: Nembutal), blood was taken from each rat through the descending abdominal arota. Then, TC, HDL-C, TG, PL, and LPO in the serum were measured in the following manner.
A TC kit-K (supplied by Nippon Shoji Kaisha, Ltd.) was used. The principle of this determination is as follows: The ester of cholesterol in the serum is hydrolyzed with cholesterol-ester hydrolase into free cholesterol and fatty acids. All the free cholesterol is oxidized with cholesterol oxydase to form Δ^4 -cholestenone and hydrogen peroxide. Phenol and 4-aminoantipyrin are oxidatively condensed together by the formed hydrogen peroxide and peroxydase. The produced red quinone coloring matter is measured by colorimetry for absorbance at 500 nm using a spectrophotometer, thereby determining the TC:
The color-developing liquid (3.0 ml) is well mixed with the sample serum (0.02 ml). The mixture once heated at 37° C. for 15 minutes, is measured for absorbance at 500 nm with a spectrophotometer. The found absorbance is denoted by EA. On the other hand, the color-developing liquid (3.0 ml) is well mixed with the standard solution. The mixture is treated and measured for absorbance at 500 nm in the same manner as the above. This found absorbance is denoted by ES. Both EA and ES are determined with reference to the value of the blank test conducted using the color-developing liquid (3.0 ml) alone. [formula]
An HDL-C kit-N (supplied by Nippon Shoji Kaisha, Ltd.) was used. […] (VLDL) and lo density lipoprotein (LDL) in the serum is precipitated by the action of heparin. The precipitate is separated by centrifugation. High density lipoprotein (HDL) is dissolved in the separated supernatant. Esters of cholesterol in this fraction is hydrolyzed with cholesterol-ester hydrolase into free cholesterol and fatty acids. All the free cholesterol is oxidized with cholesterol oxydase to form Δ^4 -cholestenone and hydrogen peroxide. Phenol and 4-aminoantipyrine are oxidatively condensed together by the formed hydrogen peroxide and peroxydase. The produced red quinone coloring matter is measured by colorimetry for absorbance at 500 nm using a spectrophotometer, thereby determining the HDL-C.
A PL kit-K (supplied by Nippon Shoji Kaisha, Ltd.) was used for the determination. Lecithin, sphingomyelin, and lysolecithin are decomposed by phospholipase D into choline and phosphatidic acid, N-acylsphingosyl phosphate, or lysophosphatidic acid, respectively. The resulting choline is quantitatively decomposed by choline oxydase into hydrogen peroxide and betaine. With this hydrogen peroxide, and aid of peroxydase, phenol and 4-aminoantipyrin are condensed into red quinone pigment, then the absorbance at 500 nm of which is measured with a spectrophotometer, thereby determining the PL. […]

[2] = Body weight of rats in method B; set-up: species or system male Wistar strain rats; settings: rat, in vivo
Experimental: as §1

[3] = versus control group, read-out: AI % of diff.
[4] = versus control group, read-out: HDL-C % of diff.
[5] = versus control group, read-out: LPO % of diff.
[6] = versus control group, read-out: PL % of diff.
[7] = versus control group, read-out: TG % of diff.

| Compound | HDL-C rise compared with normal diet group [1] | change in vivo at 1 % in diet [1, 3] | change in vivo at 1 % in diet [1, 4] | change in vivo at 1 % in diet [1, 5] | change in vivo at 1 % in diet [1, 6] | change in vivo at 1 % in diet [1, 7] | AI Diff. ([1]; versus control group) | HDL-C Diff. ([1]; versus control group) | LPO Diff. ([1]; versus control group) | PL Diff. ([1]; versus control group) | TG Diff. ([1]; versus control group) | TG % of diff. (Table 20) [1] | TG Diff. (Table 20) [1] | also measured |
| --- | --- | --- | --- | --- | --- | --- | --- | --- | --- | --- | --- | --- | --- | --- |
| COc1cc(C(=O)OC2CCC34CC35CCC3(C)C(C(C)CCC=C(C)C)CCC3(C)C5CCC4C2(C)C)ccc1N (centres unmarked) [Example 167, cycloartenyl ester of 4-amino-3-methoxy benzoic acid] | remarkable rises | – | – | – | – | – | – | – | – | – | – | – | – | AI [(TC - HDL-C)/(HDL-C)] [1]: 2.405; HDL-C in serum [1]: 79.6 mg/dL; LPO in serum [1]: 2.28 nmol/mL; PL in serum [1]: 126.4 mg/dL; TC in serum [1]: 271.0 mg/dL; TG in serum [1]: 67.1 mg/dL; Body weight during feed period, 1st day [2]: 105 ± 3.4 g; Body weight during feed period, 8th day [2]: 143 ± 10.4 g; Body weight during feed period, 15th day [2]: 191 ± 18.4 g; Body weight during feed period, 22nd day [2]: 241 ± 21.7 g; Body weight during feed period, 28th day [2]: 272 ± 20.8 g; Body weight just before blood sampling, 29th day [2]: 259 ± 20.6 g |
| CCCOc1cc(C=C(C)C(=O)OC2CCC34CC35CCC3(C)C(C(C)CCC=C(C)C)CCC3(C)C5CCC4C2(C)C)ccc1O (stereo not drawn) [Example 146, cycloartenyl ester of 4-hydroxy-3-propoxy-α-methylcinnamic acid] | – | -65.6% | 73.3% | -28.4% | -30.3% | -9% | -14.28 | +9.9 mg/dl | -0.80 nmol/mL | -42.5 mg/dL | -5.1 mg/dL | – | – | AI [(TC - HDL-C)/(HDL-C)] [1]: 7.479; HDL-C in serum [1]: 23.4 mg/dL; LPO in serum [1]: 2.02 nmol/mL; PL in serum [1]: 97.6 mg/dL; TC in serum [1]: 198.4 mg/dL; TG in serum [1]: 51.4 mg/dL; TC % of diff. ([1]; versus control group): -38.1%; TC Diff. ([1]; versus control group): -108.9 mg/dL; Body weight during feed period, 1st day [2]: 106 ± 5.9 g; Body weight during feed period, 8th day [2]: 149 ± 11.0 g; Body weight during feed period, 15th day [2]: 193 ± 17.5 g; Body weight during feed period, 22nd day [2]: 243 ± 15.8 g; Body weight during feed period, 28th day [2]: 271 ± 20.2 g; Body weight just before blood sampling, 29th day [2]: 258 ± 19.1 g |
| CCCOc1ccc(N)cc1C=C(C)C(=O)OC1CCC23CC24CCC2(C)C(C(C)CCC=C(C)C)CCC2(C)C4CCC3C1(C)C (stereo not drawn) [Example 195, Cycloartenyl ester of 5-amino-2-propoxy-α-methylcinnamic acid] | remarkable rises | -88.3% | 211% | -37.2% | -34.2% | -28.9% | -22.22 | +33.7 mg/dl | -1.29 nmol/mL | -60.4 mg/dL | -23.5 mg/dL | -53.3% | -223.1 mg/dL | – |
| COc1ccc(N)cc1C(=O)OC1CCC23CC24CCC2(C)C(C(C)CCC=C(C)C)CCC2(C)C4CCC3C1(C)C (centres unmarked) [Example 171, cycloartenyl ester of 5-amino-2-methoxybenzoic acid] | – | -71.6% | 51.3% | -36% | -33% | -19.3% | -18.02 | +8.2 mg/dl | -1.25 nmol/mL | -58.4 mg/dL | -15.7 mg/dL | -53.0% | -221.6 mg/dL | – |
| C=C(CCC(C)C1CCC2(C)C3CCC4C(C)(C)C(OC(=O)C(C)=Cc5cccc(N)c5)CCC45CC35CCC12C)C(C)C (stereo not drawn) [Example 213, 24-Methylenecycloartanyl ester of m-amino-α-methylcinnamic acid] | remarkable rises | -93% | 328% | -38.9% | -34.8% | -29.2% | -23.38 | +52.4 mg/dl | -1.35 nmol/mL | -61.5 mg/dL | -23.7 mg/dL | -54.7% | -229.0 mg/dL | – |
| COc1cc(C=CC(=O)OC2CCC34CC35CCC3(C)C(C(C)CCC(C)=C(C)C)CCC3(C)C5CCC4C2(C)C)ccc1N (centres unmarked) [Example 178, Cyclobranyl ester of 4-amino-3-methoxycinnamic acid] | remarkable rises | -88.9% | 215% | -36.6% | -28.2% | -28% | -22.35 | +34.4 mg/dl | -1.27 nmol/mL | -49.8 mg/dL | -22.8 mg/dL | -54.2% | -226.9 mg/dL | – |
| COc1ccc([N+](=O)[O-])cc1C(=O)OC1CCC23CC24CCC2(C)C(C(C)CCC=C(C)C)CCC2(C)C4CCC3C1(C)C (centres unmarked) [Example 170, cycloartenyl ester of 2-methoxy-5-nitrobenzoic acid] | remarkable rises | -74.9% | 123% | -14.1% | -28.9% | -21.9% | -18.83 | +19.7 mg/dl | -0.49 nmol/mL | -51.1 mg/dL | -17.8 mg/dL | -37.5% | -157.0 mg/dL | – |
| C=C(CCC(C)C1CCC2(C)C3CCC4C(C)(C)C(OC(=O)C(C)=Cc5ccc(OC(=O)CC)c(OC)c5)CCC45CC35CCC12C)C(C)C (stereo not drawn) [Example 117, 24-methylenecycloartanyl ester of 3-methoxy-4-propionyloxy-α-methylcinnamic acid] | – | -64.3% | 63.1% | -24.5% | -28.3% | -21.6% | -16.17 | +10.1 mg/dl | -0.85 nmol/mL | -50.0 mg/dL | -17.6 mg/dL | -37.7% | -157.9 mg/dL | – |
| CCC(=O)Oc1ccc(C=C(C)C(=O)OC2CCC34CC35CCC3(C)C(C(C)CCC=C(C)C)CCC3(C)C5CCC4C2(C)C)cc1OC (stereo not drawn) [Example 113, cycloartenyl ester of 3-methoxy-4-propionyloxy-α-methyl cinnamic acid] | – | -63.5% | 55.6% | -12.1% | -29.7% | -25.7% | -15.96 | +8.9 mg/dl | -0.42 nmol/mL | -52.5 mg/dL | -20.9 mg/dL | -39.4% | -164.7 mg/dL | – |
